# Measured values reported in publication PMC9037358 (RSC Advances, 2021).
# Tests used:
# [1] = system: Salmonella typhimurium; experiment: Antimicrobial activity; type: cell-based; conditions: 50 μg mL^−1; NA: not active
# [2] = system: Escherichia coli ATCC 25955; experiment: Antimicrobial activity; type: cell-based; conditions: 50 μg mL^−1; NA: not active
# [3] = system: Proteus vulgaris; experiment: Antimicrobial activity; type: cell-based; conditions: 24 h, read-out: inhibition ratio% P. vulgaris
# [4] = system: Klebsiella pneumonia; experiment: Antimicrobial activity; type: cell-based; conditions: 50 μg mL^−1; NA: not active
# [5] = system: Staphylococcus aureus NRRL B-767; experiment: Antimicrobial activity; type: cell-based; conditions: 50 μg mL^−1, NA: not active
# [6] = MTT cytotoxicity assay, normal breast cell line; type: cell-based, human; conditions: human, MCF 10A normal breast cells
# [7] = system: MCF-7; experiment: MTT cytotoxicity assay; type: cell-based; conditions: Homo sapiens, MCF7, 48 h, read-out: Cytotoxicity IC50 μM ± S.D. MCF-7
# [8] = system: MDA-MB-231; experiment: MTT cytotoxicity assay; type: cell-based; conditions: Homo sapiens, MDA-MB-231, 48 h, read-out: Cytotoxicity IC50 μM ± S.D. MDA-MB-231
# [9] = system: P. vulgaris; experiment: Anti-biofilm activity; type: cell-based; conditions: 50 μg mL^−1
# [10] = system: P. aeruginosa; experiment: Anti-biofilm activity; type: cell-based; conditions: 50 μg mL^−1
# [11] = system: Candida albicans ATCC 10231; experiment: Antimicrobial activity; type: cell-based; conditions: 50 μg mL^−1; NA: not active
# [12] = system: K. pneumonia; experiment: Anti-biofilm activity; type: cell-based; conditions: 50 μg mL^−1
# [13] = system: E. coli; experiment: Anti-biofilm activity; type: cell-based; conditions: 50 μg mL^−1
# [14] = system: S. aureus; experiment: Anti-biofilm activity; type: cell-based; conditions: 50 μg mL^−1
# [15] = system: MCF 10A; experiment: MTT cytotoxicity assay, normal breast cell line; type: cell-based, human; conditions: both breast cancer cell lines vs MCF-10A
# [16] = target: carbonic anhydrase II (Homo sapiens, UniProt P00918); experiment: In vitro carbonic anhydrase II enzyme inhibition; type: biochemical
# [17] = system: S. typhimurium; experiment: Anti-biofilm activity; type: cell-based; conditions: 50 μg mL^−1
# [18] = system: MDA-MB-231; experiment: Cellular uptake assay; type: cell-based, human; conditions: HPLC
# [19] = system: MDA-MB-231; experiment: Annexin V-FITC apoptosis assay; type: cell-based, human
# [20] = target: carbonic anhydrase IX (Homo sapiens, UniProt Q16790); experiment: In vitro carbonic anhydrase IX enzyme inhibition; type: biochemical
# [21] = system: MDA-MB-231; experiment: Cell cycle analysis; type: cell-based, human; conditions: compared to positive control
# [22] = system: CA IX; conditions: read-out: CA IX IC50; as reported; cited from earlier work
# [23] = system: E. coli; conditions: cited from earlier work
# [24] = system: S. flexenari; conditions: cited from earlier work
smiles,measurement,setting,value
"O=C(O)c1cn(C2CC2)c2cc(N3CCNCC3)c(F)cc2c1=O [Cip, ciprofloxacin, reference compound]",inhibition ratio% S. typhimurium,[1],99.56%
same,inhibition ratio% E. coli,[2],99.1%
same,inhibition of growth at 50 µg/mL,[3],99.8%
same,inhibition ratio% K. pneumonia,[4],99.7%
same,inhibition ratio% S. aureus,[5],99.25%
same,inhibition ratio% S. aureus,[5]; listed as CIP,99.2%
"NS(=O)(=O)c1ccc(NC2=NC(=O)/C(=C\c3ccccc3)S2)cc1 [Compound 4a, (E)-4-(5-Benzylidene-4-oxo-4,5-dihydrothiazol-2-ylamino)benzenesulfonamide]",IC50 at 48 h,[6],24.2 ± 0.9 µM
same,IC50,[7],9.63 ± 0.4 µM
same,IC50,[8],12.8 ± 0.5 µM
"NS(=O)(=O)c1ccc(NC2=NC(=O)/C(=C\c3ccc(O)cc3)S2)cc1 [Compound 4b, (E)-4-(5-(4-Hydroxybenzylidene)-4-oxo-4,5-dihydrothiazol-2-ylamino)benzenesulfonamide]",IC50 at 48 h,[6],17.8 ± 0.6 µM
same,Biofilm inhibition ratio% P. vulgaris,[9],16.85%
same,IC50,[7],3.63 ± 0.1 µM
same,Biofilm inhibition ratio% P. aeruginosa,[10],45.51%
same,inhibition ratio% C. albicans,[11],8.87%
same,IC50,[8],14.6 ± 0.6 µM
same,Biofilm inhibition ratio% K. pneumonia,[12],78.29%
same,Biofilm inhibition ratio% E. coli,[13],18.78%
same,Biofilm inhibition ratio% S. aureus,[14],53.06%
"COc1ccc(/C=C2/SC(Nc3ccc(S(N)(=O)=O)cc3)=NC2=O)cc1 [Compound 4c, (E)-4-(5-(4-Methoxybenzylidene)-4-oxo-4,5-dihydrothiazol-2-ylamino)benzenesulfonamide]",IC50 at 48 h,[6],22.7 ± 0.8 µM
same,IC50,[7],3.67 ± 0.1 µM
same,IC50,[8],6.31 ± 0.2 µM
"NS(=O)(=O)c1ccc(NC2=NC(=O)/C(=C\c3ccc(Cl)cc3)S2)cc1 [Compound 4d, (E)-4-(5-(4-Chlorobenzylidene)-4-oxo-4,5-dihydrothiazol-2-ylamino)benzenesulfonamide]",IC50 at 48 h,[6],22.9 ± 0.8 µM
same,IC50,[7],15.5 ± 0.6 µM
same,IC50,[8],1.88 ± 0.1 µM
"C=CCc1cc(/C=C2/SC(Nc3ccc(S(N)(=O)=O)cc3)=NC2=O)c(O)c(OC)c1 [Compound 4e, (E)-4-(5-(5-Allyl-2-hydroxy-3-methoxybenzylidene)-4-oxo-4,5-dihydrothiazol-2-ylamino)benzenesulfonamide]",IC50 at 48 h,[6],19.4 ± 0.7 µM
same,selectivity to breast cancer cell lines over MCF-10A,[15],5.5 times
same,IC50,[16],3.92 µM
same,inhibition ratio% S. typhimurium,[1],75.09%
same,Biofilm inhibition ratio% P. vulgaris,[9],61.41%
same,Biofilm inhibition ratio% S. typhimurium,[17],63.43%
same,IC50,[7],4.58 ± 1.8 µM
same,level of compound taken up into MDA-MB-231 cell line,[18],12500 ng/mL
same,necrosis phase,[19]; upper left quadrant,16.65%
same,"annexin V-FITC-positive cells, late apoptotic phase",[19]; upper right quadrant,22.04%
same,inhibition ratio% E. coli,[2],60.66%
same,IC50,[20]; CA IX IC50 (nM)±S.D.,10.9 nM
same,IC50,[20]; CA IX IC50 (μM),11 nM
same,inhibition of growth at 50 µg/mL,[3],42%
same,arrest in the S phase,[21],1.4 fold
same,increase in the percentage of cells at pre-G1,[21],22 fold
same,inhibition ratio% K. pneumonia,[4],62.89%
same,inhibition ratio% S. aureus,[5],80.69%
same,IC50,[8],3.58 ± 0.1 µM
same,Biofilm inhibition ratio% K. pneumonia,[12],18.60%
same,Biofilm inhibition ratio% E. coli,[13],15.47%
same,Biofilm inhibition ratio% S. aureus,[14],45.92%
"NS(=O)(=O)c1ccc(NC2=NC(=O)/C(=C\c3ccc(C(=O)O)cc3)S2)cc1 [Compound 4f, (E)-4-((4-oxo-2-(4-Sulfamoylphenylamino)thiazol-5(4H)-ylidene)methyl)benzoic acid]",IC50 at 48 h,[6],30.3 ± 1.1 µM
same,inhibition ratio% S. typhimurium,[1],45.72%
same,Biofilm inhibition ratio% P. vulgaris,[9],64.67%
same,Biofilm inhibition ratio% S. typhimurium,[17],36.57%
same,IC50,[7],36 ± 1.4 µM
same,inhibition ratio% E. coli,[2],46.45%
same,inhibition of growth at 50 µg/mL,[3],3.39%
same,inhibition ratio% K. pneumonia,[4],26.80%
same,inhibition ratio% S. aureus,[5],57.93%
same,IC50,[8],17.2 ± 0.7 µM
same,Biofilm inhibition ratio% K. pneumonia,[12],10.08%
same,Biofilm inhibition ratio% E. coli,[13],19.89%
same,Biofilm inhibition ratio% S. aureus,[14],21.43%
"NS(=O)(=O)c1ccc(NC2=NC(=O)/C(=C\c3ccc([N+](=O)[O-])cc3)S2)cc1 [Compound 4g, (E)-4-(5-(4-Nitrobenzylidene)-4-oxo-4,5-dihydrothiazol-2-ylamino)benzenesulfonamide]",IC50 at 48 h,[6],47.9 ± 1.7 µM
same,selectivity to breast cancer cell lines over MCF-10A,[15],8.5 times
same,IC50,[16],1.55 µM
same,inhibition ratio% S. typhimurium,[1],60.97%
same,IC50,[7],2.55 ± 0.1 µM
same,IC50,[20]; CA IX IC50 (nM)±S.D.,17 nM
same,IC50,[20]; CA IX IC50 (μM),17 nM
same,inhibition of growth at 50 µg/mL,[3],23.3%
same,inhibition ratio% S. aureus,[5],69.74%
same,IC50,[8],5.54 ± 0.2 µM
same,Biofilm inhibition ratio% K. pneumonia,[12],79.46%
same,Biofilm inhibition ratio% S. aureus,[14],35.24%
"COc1cc(/C=C2/SC(Nc3ccc(S(N)(=O)=O)cc3)=NC2=O)ccc1O [Compound 4h, (E)-4-(5-(4-Hydroxy-3-methoxybenzylidene)-4-oxo-4,5-dihydrothiazol-2-ylamino)benzenesulfonamide]",IC50 at 48 h,[6],26.1 ± 1.1 µM
same,selectivity to breast cancer cell lines over MCF-10A,[15],17.5 times
same,IC50,[16],2.19 µM
same,inhibition ratio% S. typhimurium,[1],59.11%
same,Biofilm inhibition ratio% P. vulgaris,[9],50.54%
same,Biofilm inhibition ratio% S. typhimurium,[17],66.86%
same,IC50,[7],1.52 ± 0.1 µM
same,level of compound taken up into MDA-MB-231 cell line,[18],17070 ng/mL
same,inhibition ratio% E. coli,[2],29.51%
same,IC50,[20]; CA IX IC50 (nM)±S.D.,25.6 nM
same,IC50,[20]; CA IX IC50 (μM),26 nM
same,inhibition of growth at 50 µg/mL,[3],19.1%
same,Biofilm inhibition ratio% P. aeruginosa,[10],35.96%
same,inhibition ratio% K. pneumonia,[4],33.51%
same,inhibition ratio% S. aureus,[5],68.30%
same,IC50,[8],1.56 ± 0.1 µM
same,Biofilm inhibition ratio% K. pneumonia,[12],77.52%
same,Biofilm inhibition ratio% E. coli,[13],19.89%
same,Biofilm inhibition ratio% S. aureus,[14],19.39%
"COc1cc(/C=C2/SC(Nc3ccc(S(N)(=O)=O)cc3)=NC2=O)cc(OC)c1OC [Compound 4i, (E)-4-(4-oxo-5-(3,4,5-Trimethoxybenzylidene)-4,5-dihydrothiazol-2-ylamino)benzenesulfonamide]",IC50 at 48 h,[6],14.2 ± 0.5 µM
same,Biofilm inhibition ratio% P. vulgaris,[9],7.61%
same,Biofilm inhibition ratio% S. typhimurium,[17],22.86%
same,IC50,[7],4.05 ± 0.2 µM
same,IC50,[8],16.3 ± 0.6 µM
same,Biofilm inhibition ratio% K. pneumonia,[12],5.43%
same,Biofilm inhibition ratio% E. coli,[13],49.72%
same,Biofilm inhibition ratio% S. aureus,[14],22.55%
"CN(C)c1ccc(/C=C2/SC(Nc3ccc(S(N)(=O)=O)cc3)=NC2=O)cc1 [Compound 4j, (E)-4-(5-(4-(Dimethylamino)benzylidene)-4-oxo-4,5-dihydrothiazol-2-ylamino)benzenesulfonamide]",IC50 at 48 h,[6],13.1 ± 0.5 µM
same,IC50,[7],26.6 ± 1 µM
same,inhibition of growth at 50 µg/mL,[3],5.08%
same,IC50,[8],10.1 ± 0.4 µM
"C[C@@H]1[C@H](O)[C@@H](C)/C=C/C=C/CC/C=C/C=C/C=C/C=C/C(O[C@H]2O[C@H](C)[C@@H](O)[C@H](N)[C@@H]2O)CC2O[C@](O)(CC(O)C(O)CCC(O)CC(O)CC(O)CC(=O)O[C@H]1C)CC(O)C2C(=O)O (stereo partly shown) [Nys, nystatin, reference compound]",inhibition ratio% C. albicans,[11],99.21%
C[C@@H](O)[C@H]1C(=O)N2C(C(=O)O)=C(SCCN=CN)C[C@H]12 [imipenem],zone inhibition (ZI) E. coli,[23],30 mm
same,zone inhibition (ZI) S. flexenari,[24],27 mm
